Measurements published in the NIST ThermoML archive (doi:10.1016/j.fluid.2019.02.010).
Numbers after ± are expanded uncertainties.

Assay: xn = mol fraction of the nth substance listed
Settings: 101 kPa, Liquid, Vibrating tube method

SMILES	mass density (293 K, x2 = 0.667) [kg/m3]	mass density (298 K, x2 = 0.667) [kg/m3]	mass density (303 K, x2 = 0.667) [kg/m3]	mass density (308 K, x2 = 0.667) [kg/m3]	mass density (313 K, x2 = 0.667) [kg/m3]	mass density (318 K, x2 = 0.667) [kg/m3]	mass density (323 K, x2 = 0.667) [kg/m3]	mass density (328 K, x2 = 0.667) [kg/m3]	also measured
CCN(CC)CC(=O)Nc1c(C)cccc1C [2-(diethylamino)-N-(2,6-dimethylphenyl)acetamide] + CCCCCCCCCC(=O)O	960.9 ± 0.6	956.8 ± 0.6	952.8 ± 0.6	948.7 ± 0.6	944.7 ± 0.6	940.6 ± 0.6	936.4 ± 0.6	932.3 ± 0.6	mass density (293 K, x2 = 0.75): 952.5 ± 0.6 kg/m3; mass density (293 K, x2 = 0.8): 944.9 ± 0.6 kg/m3; mass density (298 K, x2 = 0.75): 948.4 ± 0.6 kg/m3; mass density (298 K, x2 = 0.8): 940.9 ± 0.6 kg/m3; mass density (303 K, x2 = 0.75): 944.3 ± 0.6 kg/m3; mass density (303 K, x2 = 0.8): 936.9 ± 0.6 kg/m3; mass density (308 K, x2 = 0.75): 940.2 ± 0.6 kg/m3; mass density (308 K, x2 = 0.8): 932.9 ± 0.6 kg/m3; mass density (313 K, x2 = 0.75): 936.1 ± 0.6 kg/m3; mass density (313 K, x2 = 0.8): 928.9 ± 0.6 kg/m3; mass density (318 K, x2 = 0.75): 931.9 ± 0.6 kg/m3; mass density (318 K, x2 = 0.8): 924.7 ± 0.6 kg/m3; mass density (323 K, x2 = 0.75): 927.7 ± 0.6 kg/m3; mass density (323 K, x2 = 0.8): 920.6 ± 0.6 kg/m3; mass density (328 K, x2 = 0.75): 923.5 ± 0.6 kg/m3; mass density (328 K, x2 = 0.8): 916.4 ± 0.6 kg/m3
CCN(CC)CC(=O)Nc1c(C)cccc1C [2-(diethylamino)-N-(2,6-dimethylphenyl)acetamide] + CCCCCCCCCCCC(=O)O	949.6 ± 0.6	945.6 ± 0.6	941.6 ± 0.6	937.6 ± 0.6	933.6 ± 0.6	929.6 ± 0.5	925.55 ± 0.54	921.5 ± 0.5	
CCN(CC)CC(=O)Nc1c(C)cccc1C [2-(diethylamino)-N-(2,6-dimethylphenyl)acetamide] + Cc1ccc(C(C)C)c(O)c1	989.1 ± 0.2	985.4 ± 0.2	981.6 ± 0.2	977.9 ± 0.2	974.2 ± 0.2	970.4 ± 0.2	966.6 ± 0.2	962.9 ± 0.2	
Cc1ccc(C(C)C)c(O)c1 [3-methyl-6-isopropylphenol] + CCCCCCCCCC(=O)O									mass density (293 K, x2 = 0.5): 931.8 ± 0.5 kg/m3; mass density (298 K, x2 = 0.5): 928 ± 0.5 kg/m3; mass density (303 K, x2 = 0.5): 924.2 ± 0.5 kg/m3; mass density (308 K, x2 = 0.5): 920.3 ± 0.5 kg/m3; mass density (313 K, x2 = 0.5): 916.5 ± 0.5 kg/m3; mass density (318 K, x2 = 0.5): 912.6 ± 0.5 kg/m3; mass density (323 K, x2 = 0.5): 908.7 ± 0.4 kg/m3; mass density (328 K, x2 = 0.5): 904.9 ± 0.4 kg/m3
CCCCCCCCCC(=O)O [decanoic acid] + CC(C)[C@@H]1CC[C@@H](C)C[C@H]1O									mass density (293 K, x1 = 0.5): 901.1 ± 0.4 kg/m3; mass density (298 K, x1 = 0.5): 897.6 ± 0.4 kg/m3; mass density (303 K, x1 = 0.5): 894 ± 0.4 kg/m3; mass density (308 K, x1 = 0.5): 890.4 ± 0.4 kg/m3; mass density (313 K, x1 = 0.5): 886.7 ± 0.4 kg/m3; mass density (318 K, x1 = 0.5): 883.1 ± 0.4 kg/m3; mass density (323 K, x1 = 0.5): 879.4 ± 0.4 kg/m3; mass density (328 K, x1 = 0.5): 875.7 ± 0.4 kg/m3
CCCCCCCC[N+](CCCCCCCC)(CCCCCCCC)CCCCCCCC.[Br-] [tetraoctylammonium bromide] + CCCCCCCCCC(=O)O	932.9 ± 0.8	929.6 ± 0.8	926.3 ± 0.8	923 ± 0.8	919.7 ± 0.8	916.5 ± 0.7	913.2 ± 0.7	910 ± 0.7	
